Measured values published in PubChem BioAssay (NCI).
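48-hour exposure; five concentrations; linearly interpolated endpoints. The concentration for full growth arrest is given as TGI.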

Key:
Assay in all cases: inhibition of tumour cell growth, NCI panel, 48 h
MDA-MB-231 breast = test system: MDA-MB-231 breast
OVCAR-5 ovarian = test system: OVCAR-5 ovarian
HCT-116 colon = test system: HCT-116 colon
HOP-62 NSCLC = test system: HOP-62 NSCLC
A549 NSCLC = test system: A549 NSCLC
SK-MEL-28 melanoma = test system: SK-MEL-28 melanoma
NCI-H226 lung = test system: NCI-H226 lung
UACC-257 melanoma = test system: UACC-257 melanoma
SN12C renal = test system: SN12C renal
ACHN renal = test system: ACHN renal
MOLT-4 leukemia = test system: MOLT-4 leukemia
SF-539 CNS = test system: SF-539 CNS
SW-620 colon = test system: SW-620 colon
SK-MEL-2 melanoma = test system: SK-MEL-2 melanoma
CAKI-1 renal = test system: CAKI-1 renal
OVCAR-8 ovarian = test system: OVCAR-8 ovarian
SK-OV-3 ovarian = test system: SK-OV-3 ovarian
SNB-75 CNS = test system: SNB-75 CNS
T-47D breast = test system: T-47D breast
MALME-3M melanoma = test system: MALME-3M melanoma
BT-549 breast = test system: BT-549 breast
SF-268 CNS = test system: SF-268 CNS
SNB-19 CNS = test system: SNB-19 CNS
NCI/ADR-RES ovarian = test system: NCI/ADR-RES ovarian
DU-145 prostate = test system: DU-145 prostate
RXF 393 renal = test system: RXF 393 renal
KM12 colon = test system: KM12 colon
OVCAR-4 ovarian = test system: OVCAR-4 ovarian
MDA-N = test system: MDA-N
HL-60(TB) leukemia = test system: HL-60(TB) leukemia
UO-31 renal = test system: UO-31 renal
NCI-H522 lung = test system: NCI-H522 lung
A498 renal = test system: A498 renal
HT29 colon = test system: HT29 colon
786-0 renal = test system: 786-0 renal
M14 melanoma = test system: M14 melanoma
OVCAR-3 ovarian = test system: OVCAR-3 ovarian
MDA-MB-435 = test system: MDA-MB-435
COLO 205 colon = test system: COLO 205 colon
UACC-62 melanoma = test system: UACC-62 melanoma
RPMI-8226 leukemia = test system: RPMI-8226 leukemia
IGROV1 ovarian = test system: IGROV1 ovarian
SK-MEL-5 melanoma = test system: SK-MEL-5 melanoma
NCI-H23 lung = test system: NCI-H23 lung
K-562 leukemia = test system: K-562 leukemia
HOP-92 NSCLC = test system: HOP-92 NSCLC
U251 CNS = test system: U251 CNS
MCF7 breast = test system: MCF7 breast
PC-3 prostate = test system: PC-3 prostate
HCT-15 colon = test system: HCT-15 colon
NCI-H460 lung = test system: NCI-H460 lung
SF-295 CNS = test system: SF-295 CNS
CCRF-CEM leukemia = test system: CCRF-CEM leukemia
EKVX NSCLC = test system: EKVX NSCLC
HS 578T breast = test system: HS 578T breast
TK-10 renal = test system: TK-10 renal
LOX IMVI melanoma = test system: LOX IMVI melanoma
HCC-2998 colon = test system: HCC-2998 colon
SR leukemia = test system: SR leukemia

## CC1OC(OC2C(O[C@@H]3C[C@@H]4CC[C@@H]5[C@H](CC[C@]6(C)[C@@H]7[C@H](C[C@@H]56)O[C@]5(CC[C@@H](C)CO5)[C@H]7C)[C@@]4(C)C[C@H]3O)OC(CO)C(OC3OC(CO)C(O)C(O)C3O)C2O)C(O)C(O)C1O (stereo partly specified)
MDA-MB-231 breast
  TGI: 3.39 µM
OVCAR-5 ovarian
  TGI: 3.12 µM
HCT-116 colon
  TGI: 13.1 µM
HOP-62 NSCLC
  TGI: 3.22 µM
A549 NSCLC
  TGI: 3.02 µM
SK-MEL-28 melanoma
  TGI: 3.13 µM
NCI-H226 lung
  TGI: 3.25 µM
UACC-257 melanoma
  TGI: 3.3 µM
SN12C renal
  TGI: 3.05 µM
ACHN renal
  TGI: 3.18 µM
MOLT-4 leukemia
  TGI: 3.67 µM
SF-539 CNS
  TGI: 3.16 µM
SW-620 colon
  TGI: 3.04 µM
SK-MEL-2 melanoma
  TGI: 3.28 µM
CAKI-1 renal
  TGI: 3.35 µM
OVCAR-8 ovarian
  TGI: 2.9 µM
SK-OV-3 ovarian
  TGI: 3.17 µM
SNB-75 CNS
  TGI: 5.76 µM
T-47D breast
  TGI: 11.2 µM
MALME-3M melanoma
  TGI: 2.57 µM
BT-549 breast
  TGI: 4.44 µM
SF-268 CNS
  TGI: 3.51 µM
SNB-19 CNS
  TGI: 3.66 µM
NCI/ADR-RES ovarian
  TGI: 3.88 µM
DU-145 prostate
  TGI: 4.29 µM
RXF 393 renal
  TGI: 3.53 µM
KM12 colon
  TGI: 4.49 µM
OVCAR-4 ovarian
  TGI: 4.76 µM
MDA-N
  TGI: 3.37 µM
HL-60(TB) leukemia
  TGI: 3.83 µM
UO-31 renal
  TGI: 3.81 µM
NCI-H522 lung
  TGI: 2.4 µM
A498 renal
  TGI: 3.1 µM
HT29 colon
  TGI: 2.88 µM
786-0 renal
  TGI: 3.32 µM
M14 melanoma
  TGI: 3.07 µM
OVCAR-3 ovarian
  TGI: 3.04 µM
MDA-MB-435
  TGI: 3.16 µM
COLO 205 colon
  TGI: 3.12 µM
UACC-62 melanoma
  TGI: 3.62 µM
RPMI-8226 leukemia
  TGI: 11.3 µM
IGROV1 ovarian
  TGI: 2.39 µM
SK-MEL-5 melanoma
  TGI: 2.89 µM
NCI-H23 lung
  TGI: 4.12 µM
K-562 leukemia
  TGI: 58.1 µM
HOP-92 NSCLC
  TGI: 5.16 µM
U251 CNS
  TGI: 3.2 µM
MCF7 breast
  TGI: 3.65 µM
PC-3 prostate
  TGI: 2.85 µM
HCT-15 colon
  TGI: 4.66 µM
NCI-H460 lung
  TGI: 4.14 µM
SF-295 CNS
  TGI: 2.92 µM
CCRF-CEM leukemia
  TGI: 3.72 µM
EKVX NSCLC
  TGI: 2.91 µM
HS 578T breast
  TGI: 4.38 µM

## O=C1/C(=C\c2c(-c3ccccc3)nn(-c3ccccc3)c2O)C(c2ccccc2)=NN1c1ccccc1
MDA-MB-231 breast
  TGI: > 100 µM
OVCAR-5 ovarian
  TGI: > 100 µM
HCT-116 colon
  TGI: > 100 µM
HOP-62 NSCLC
  TGI: > 100 µM
A549 NSCLC
  TGI: > 100 µM
SK-MEL-28 melanoma
  TGI: > 100 µM
TK-10 renal
  TGI: > 100 µM
NCI-H226 lung
  TGI: > 100 µM
UACC-257 melanoma
  TGI: > 100 µM
SN12C renal
  TGI: > 100 µM
ACHN renal
  TGI: > 100 µM
MOLT-4 leukemia
  TGI: > 100 µM
SF-539 CNS
  TGI: > 100 µM
SW-620 colon
  TGI: > 100 µM
SK-MEL-2 melanoma
  TGI: > 100 µM
LOX IMVI melanoma
  TGI: > 100 µM
CAKI-1 renal
  TGI: > 100 µM
OVCAR-8 ovarian
  TGI: > 100 µM
SK-OV-3 ovarian
  TGI: > 100 µM
SNB-75 CNS
  TGI: > 100 µM
HCC-2998 colon
  TGI: > 100 µM
T-47D breast
  TGI: > 100 µM
MALME-3M melanoma
  TGI: > 100 µM
SF-268 CNS
  TGI: > 100 µM
SNB-19 CNS
  TGI: > 100 µM
NCI/ADR-RES ovarian
  TGI: > 100 µM
DU-145 prostate
  TGI: > 100 µM
RXF 393 renal
  TGI: > 100 µM
KM12 colon
  TGI: > 100 µM
OVCAR-4 ovarian
  TGI: > 100 µM
MDA-N
  TGI: > 100 µM
HL-60(TB) leukemia
  TGI: > 100 µM
UO-31 renal
  TGI: > 100 µM
SR leukemia
  TGI: 61.4 µM
A498 renal
  TGI: > 100 µM
HT29 colon
  TGI: > 100 µM
786-0 renal
  TGI: > 100 µM
M14 melanoma
  TGI: > 100 µM
OVCAR-3 ovarian
  TGI: > 100 µM
MDA-MB-435
  TGI: > 100 µM
COLO 205 colon
  TGI: > 100 µM
UACC-62 melanoma
  TGI: > 100 µM
RPMI-8226 leukemia
  TGI: > 100 µM
IGROV1 ovarian
  TGI: > 100 µM
NCI-H23 lung
  TGI: > 100 µM
K-562 leukemia
  TGI: > 100 µM
HOP-92 NSCLC
  TGI: > 100 µM
U251 CNS
  TGI: > 100 µM
MCF7 breast
  TGI: > 100 µM
PC-3 prostate
  TGI: > 100 µM
HCT-15 colon
  TGI: > 100 µM
NCI-H460 lung
  TGI: > 100 µM
SF-295 CNS
  TGI: > 100 µM
CCRF-CEM leukemia
  TGI: > 100 µM
EKVX NSCLC
  TGI: > 100 µM
HS 578T breast
  TGI: > 100 µM

## O=C(CCO)OCCCCCC/C=C\CCCCCC/C=C\CCCCCCCCOC(=O)CCO
MDA-MB-231 breast
  TGI: 32.5 µM
OVCAR-5 ovarian
  TGI: 32.3 µM
HCT-116 colon
  TGI: 29.9 µM
HOP-62 NSCLC
  TGI: 36.1 µM
A549 NSCLC
  TGI: 29.6 µM
SK-MEL-28 melanoma
  TGI: 37.5 µM
TK-10 renal
  TGI: 31.5 µM
UACC-257 melanoma
  TGI: 30.9 µM
SN12C renal
  TGI: 31 µM
ACHN renal
  TGI: 64.3 µM
MOLT-4 leukemia
  TGI: 28.6 µM
SF-539 CNS
  TGI: > 100 µM
SW-620 colon
  TGI: 80.4 µM
SK-MEL-2 melanoma
  TGI: 31 µM
LOX IMVI melanoma
  TGI: 36.6 µM
CAKI-1 renal
  TGI: 39.3 µM
OVCAR-8 ovarian
  TGI: 36.3 µM
SK-OV-3 ovarian
  TGI: 37.5 µM
SNB-75 CNS
  TGI: 34 µM
HCC-2998 colon
  TGI: 30.1 µM
T-47D breast
  TGI: 35.9 µM
MALME-3M melanoma
  TGI: 34.7 µM
BT-549 breast
  TGI: 33.1 µM
SF-268 CNS
  TGI: 32.5 µM
SNB-19 CNS
  TGI: 32.9 µM
NCI/ADR-RES ovarian
  TGI: 32.7 µM
DU-145 prostate
  TGI: 30 µM
RXF 393 renal
  TGI: 35 µM
KM12 colon
  TGI: 46 µM
OVCAR-4 ovarian
  TGI: 55.9 µM
MDA-N
  TGI: 33.2 µM
HL-60(TB) leukemia
  TGI: 32.1 µM
UO-31 renal
  TGI: 32.6 µM
NCI-H522 lung
  TGI: 30.1 µM
A498 renal
  TGI: 50 µM
HT29 colon
  TGI: 31.5 µM
786-0 renal
  TGI: 32.5 µM
M14 melanoma
  TGI: 30.9 µM
OVCAR-3 ovarian
  TGI: 41.2 µM
MDA-MB-435
  TGI: 45.7 µM
COLO 205 colon
  TGI: > 100 µM
UACC-62 melanoma
  TGI: 32.9 µM
IGROV1 ovarian
  TGI: 31.2 µM
SK-MEL-5 melanoma
  TGI: > 100 µM
NCI-H23 lung
  TGI: 31.8 µM
K-562 leukemia
  TGI: 30.4 µM
HOP-92 NSCLC
  TGI: 32.5 µM
U251 CNS
  TGI: 30.3 µM
MCF7 breast
  TGI: 40.3 µM
PC-3 prostate
  TGI: 30.8 µM
HCT-15 colon
  TGI: 29.1 µM
NCI-H460 lung
  TGI: 31.4 µM
SF-295 CNS
  TGI: 35.5 µM
CCRF-CEM leukemia
  TGI: 32.2 µM
EKVX NSCLC
  TGI: 32.3 µM
